# According to BindingDB's records for doi:10.1016/j.bmcl.2021.128001 (The First Affiliated Hospital of Anhui Medical University, 2021):
# Target: T1, Peptidase (Staphylococcus aureus, UniProt Q7DHH4)
# T1 sequence (Q7DHH4 whole entry): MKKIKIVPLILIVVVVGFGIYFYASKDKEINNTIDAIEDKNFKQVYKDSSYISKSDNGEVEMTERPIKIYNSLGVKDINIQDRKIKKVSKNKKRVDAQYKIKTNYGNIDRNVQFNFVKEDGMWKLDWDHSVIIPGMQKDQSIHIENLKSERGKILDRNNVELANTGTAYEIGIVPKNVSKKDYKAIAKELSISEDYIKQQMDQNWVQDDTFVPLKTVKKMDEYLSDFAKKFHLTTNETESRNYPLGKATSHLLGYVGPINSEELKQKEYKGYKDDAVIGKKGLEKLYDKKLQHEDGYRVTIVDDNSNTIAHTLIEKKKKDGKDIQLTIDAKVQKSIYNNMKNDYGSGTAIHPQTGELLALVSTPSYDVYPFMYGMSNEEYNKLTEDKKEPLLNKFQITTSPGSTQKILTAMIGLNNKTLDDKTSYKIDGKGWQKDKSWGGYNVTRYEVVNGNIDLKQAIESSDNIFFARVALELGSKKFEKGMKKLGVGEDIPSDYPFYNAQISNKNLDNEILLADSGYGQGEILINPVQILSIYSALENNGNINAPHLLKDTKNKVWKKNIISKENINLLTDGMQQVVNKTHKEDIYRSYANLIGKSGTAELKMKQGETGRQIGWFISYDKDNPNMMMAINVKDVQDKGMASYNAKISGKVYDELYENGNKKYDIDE
# Assay: Binding affinity to Staphylococcus aureus PBP2a assessed as dissociation constant by SPR assay
row,koff,SMILES
1,0.0207 s⁻¹,COc1cc2c(c(OC)c1OC)-c1ccc(NCC(=O)NCCc3c[nH]c4ccccc34)c(=O)cc1[C@@H](NC(C)=O)CC2
2,0.0214 s⁻¹,COc1ccc(-c2cc(=O)oc3c(C)c(OCC(=O)N[C@@H](Cc4c[nH]c5ccc(O)cc45)C(=O)O)ccc23)cc1
3,0.0253 s⁻¹,Cc1ccc(NC(=O)[C@H](Cc2c[nH]c3ccccc23)NC(=O)C2CCN(C(=O)CNC(=O)OC(C)(C)C)CC2)cc1

row,SMILES,koff
1,COc1ccc(NC(=O)[C@H]2Oc3c(c(=O)oc4ccccc34)[C@@H]2c2ccc(CCCN3CCCC3=O)cc2)cc1,0.0284 s⁻¹
